Experimental data taken from patent US20260347372A1, “SMALL MOLECULE INHIBITORS OF KRAS G12D MUTANT” (MERCK SHARP & DOHME LLC, priority 2023, published 2026).

Experiments:
KRAS G12D = KRAS G12D (Homo sapiens, UniProt P01116, G12D); test: SOS-catalyzed nucleotide exchange assay, KRAS G12D (Procedure A); format: biochemical; conditions: guanine nucleotide exchange (GNE)
Procedure, shortened: (§1)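 60 min cpd preinc. w/ RAS–Bodipy-GDP–Tb-SA complex; + hSOS/GTP (3 mM final), RT. G12C 3 nM RAS/40 nM SOS; WT, G12D 1 nM/40 nM; 60 min rxn. G13D 1.25 nM, no SOS, 30 min rxn. HEPES pH 7.5, 10 mM MgCl2. Ratio 520/495, norm. to DMSO/max-inhibitor ctrls.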

KRAS G12C = KRAS G12C (Homo sapiens, UniProt P01116, C118S/C51S/C80L/G12C); test: SOS-catalyzed nucleotide exchange assay, KRAS G12C (Procedure A); format: biochemical; conditions: GNE
Chain of KRAS G12C (P01116 with tags, fused parts or gaps isoform P01116-2 G12C/C51S/C80L/C118S): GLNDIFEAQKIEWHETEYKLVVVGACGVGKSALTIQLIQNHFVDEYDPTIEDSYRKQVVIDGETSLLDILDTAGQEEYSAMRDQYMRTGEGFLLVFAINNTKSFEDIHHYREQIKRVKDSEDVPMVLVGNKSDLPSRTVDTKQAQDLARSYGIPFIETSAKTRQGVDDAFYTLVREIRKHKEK
Procedure, shortened: as §1

PANC08.13 cells = target: T1, PANC08.13 cells (Homo sapiens, UniProt P01116, G12D); test: Cellular phospho-ERK assay, PANC08.13 cells (KRAS G12D); format: cell-based; conditions: 2 hours, read-out: PANCO 813 pERK IC50
T1 construct: p-ERK/total ERK AlphaSureFire read-out
T1 sequence (P01116 1-188 isoform P01116-2 G12D): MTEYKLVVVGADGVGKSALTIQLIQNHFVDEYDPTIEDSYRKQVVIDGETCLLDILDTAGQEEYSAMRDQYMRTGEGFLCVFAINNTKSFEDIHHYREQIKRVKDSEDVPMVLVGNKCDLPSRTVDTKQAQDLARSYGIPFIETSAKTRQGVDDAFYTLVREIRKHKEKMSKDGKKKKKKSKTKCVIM
Procedure: Procedure for Cellular Phospho-ERK Assay in KRAS Wild Type and Mutant (G12D, G12V) Cell Lines
PANC08.13 cells (ATCC® CRL-2551™), containing homozygous KRAS-G12D activating mutation, were cultured in growth medium made of RPMI1640-GlutaMAX™-I (ThermoFisher Scientific 61870) containing 15% heat inactivated fetal bovine serum (ThermoFisher Scientific 10091148)). AsPC-1 cells (ATCC® CRL-1682™), containing homozygous KRAS-G12D activating mutation, were cultured in T150 flask in growth medium (RPMI medium 1640-GlutaMAX™-I (ThermoFisher Scientific 61870) containing 10% fetal bovine serum (ThermoFisher Scientific 10091148)).
Cells for the assay were harvested in growth medium after TrypLE (ThermoFisher scientific 12604021) digestion and were seeded in a 384-well collagen coated cell culture plate (Corning 356702) at a density of 10,000-15,000 cells/20 μL/well, and incubated at 37° C., 5% CO2 overnight. The compound (with 10 mM stock concentration) dose-response titrations were prepared [30 μM final ERK detection assay concentration and 1:3 dilutions, 10-point dose response] and appropriate amounts (270 nL) of test compounds were dispensed in a 384-well intermediate plate using an Echo 550 liquid handler. 30 μL/well of RPMI medium 1640-GlutaMAX™-I was added to the intermediate plate and the contents of the intermediate plate (10 μL/well) were then transferred to the 384-well collagen coated cell culture plate, which was incubated at 37° C., 5% CO2 for 2 hours. After removal of medium from the collagen coated cell culture plate, cells were lysed in lysis buffer from Alpha SureFire® Ultra™ Multiplex p-ERK and total ERK assay kit (PerkinElmer MPSU-PTERK) containing Halt™ Protease and Phosphatase inhibitor cocktail (ThermoFisher Scientific 78446) at room temperature with constant shaking at 300 rpm for 30 minutes. The cell lysates were then transferred to an OptiPlate-384 plate (PerkinElmer 6005620), and the phosphorylation of ERK (p-ERK) and total ERK levels were detected by Alpha SureFire® Ultra™ Multiplex p-EEK kit and total ERK assay kit (PerkinElmer MPSU-PTERK) following the manufacturer's protocol. Assay plates were read on a EnVision Multimode Plate Reader (PerkinElmer), and the ratio of p-ERK vs. total ERK in each well was used as the final readout. Dose response curves were analyzed using a 4-parameter logistic model to calculate IC50 values using Spotfire software.

NRAS = NRAS (Homo sapiens, UniProt P01111); test: SOS-catalyzed nucleotide exchange assay, NRAS (Procedure A); format: biochemical; conditions: GNE
Chain of NRAS (P01111 with tags, fused parts or gaps): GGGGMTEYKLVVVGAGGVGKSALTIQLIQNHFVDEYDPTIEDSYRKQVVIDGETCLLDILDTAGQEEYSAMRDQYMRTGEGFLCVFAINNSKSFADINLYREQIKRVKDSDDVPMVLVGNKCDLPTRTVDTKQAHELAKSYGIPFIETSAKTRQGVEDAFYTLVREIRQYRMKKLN
Procedure, shortened: as §1

KRAS WT = KRAS WT (Homo sapiens, UniProt P01116); test: SOS-catalyzed nucleotide exchange assay, KRAS WT (Procedure A); format: biochemical; conditions: GNE
Chain of KRAS WT (P01116 with tags, fused parts or gaps isoform P01116-2): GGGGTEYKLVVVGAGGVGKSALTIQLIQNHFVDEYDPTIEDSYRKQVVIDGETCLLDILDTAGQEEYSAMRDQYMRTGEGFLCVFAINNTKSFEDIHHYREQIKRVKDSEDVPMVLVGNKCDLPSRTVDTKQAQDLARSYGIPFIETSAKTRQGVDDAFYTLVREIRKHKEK
Procedure, shortened: as §1

HRAS = HRAS (Homo sapiens, UniProt P01112); test: SOS-catalyzed nucleotide exchange assay, HRAS (Procedure A); format: biochemical; conditions: GNE
Chain of HRAS (P01112 with tags, fused parts or gaps): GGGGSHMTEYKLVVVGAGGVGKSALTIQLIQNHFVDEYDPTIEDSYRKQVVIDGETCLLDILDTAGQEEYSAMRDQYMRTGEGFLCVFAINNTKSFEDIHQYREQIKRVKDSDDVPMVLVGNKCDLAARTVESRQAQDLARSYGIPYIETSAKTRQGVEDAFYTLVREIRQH
Procedure, shortened: as §1

KRAS G13D = KRAS G13D (Homo sapiens, UniProt P01116, G13D); test: SOS-catalyzed nucleotide exchange assay, KRAS G13D (Procedure A); format: biochemical; conditions: GNE
Chain of KRAS G13D (P01116 with tags, fused parts or gaps isoform P01116-2 G13D): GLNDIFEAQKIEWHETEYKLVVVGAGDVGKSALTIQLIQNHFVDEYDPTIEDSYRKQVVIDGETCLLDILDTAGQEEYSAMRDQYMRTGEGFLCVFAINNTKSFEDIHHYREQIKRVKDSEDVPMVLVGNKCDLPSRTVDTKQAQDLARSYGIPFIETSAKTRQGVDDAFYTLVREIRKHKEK
Procedure, shortened: as §1

KRAS G12V = KRAS G12V (Homo sapiens, UniProt P01116, G12V); test: SOS-catalyzed nucleotide exchange assay, KRAS G12V (Procedure A); format: biochemical; conditions: GNE
Chain of KRAS G12V (P01116 with tags, fused parts or gaps isoform P01116-2 G12V): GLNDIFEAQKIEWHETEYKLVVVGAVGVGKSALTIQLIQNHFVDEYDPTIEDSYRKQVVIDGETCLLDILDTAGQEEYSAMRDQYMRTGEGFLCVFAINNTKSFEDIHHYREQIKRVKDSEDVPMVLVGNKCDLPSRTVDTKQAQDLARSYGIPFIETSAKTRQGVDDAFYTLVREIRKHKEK
Procedure, shortened: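 Biotinylated KRAS G12V was loaded with Bodipy-GDP alongside Terbium-streptavidin to form a TR-FRET complex, which was preincubated with compounds for 60 minutes in 384-well plates. Human SOS protein and unlabeled GTP were then added for 90 minutes, giving final concentrations of 1.25 nM KRAS-G12V, 160 nM SOS and 3 mM GTP. The 520/495 nm emission ratio was read on an Envision.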

AsPC-1 cells = target: T2, AsPC-1 cells (Homo sapiens, UniProt P01116, G12D); test: Cellular phospho-ERK assay, AsPC-1 cells (KRAS G12D); format: cell-based; conditions: 2 hours, read-out: AsPC1 pERK IC50
T2 construct: p-ERK/total ERK AlphaSureFire read-out
T2 sequence (P01116 1-188 isoform P01116-2 G12D): as the sequence (P01116 1-188 isoform P01116-2 G12D) above
Procedure, shortened: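 Compound was titrated 10-point in 3-fold steps (top 30 μM) on KRAS G12D homozygous pancreatic lines PANC08.13 and AsPC-1 for 2 h at 37 °C. The p-ERK/total ERK ratio was measured by multiplex AlphaLISA SureFire and fitted with a 4-parameter logistic model to give IC50.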

Chain of KRAS G12D (P01116 with tags, fused parts or gaps isoform P01116-2 G12D): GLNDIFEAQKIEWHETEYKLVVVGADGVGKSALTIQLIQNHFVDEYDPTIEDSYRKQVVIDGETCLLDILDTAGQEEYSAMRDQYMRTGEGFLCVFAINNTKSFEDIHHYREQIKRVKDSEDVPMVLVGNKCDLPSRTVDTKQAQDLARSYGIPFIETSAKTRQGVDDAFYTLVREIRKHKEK

IC50 (KRAS G12D) [µM]	IC50 (KRAS G12C) [µM]	IC50 (PANC08.13 cells) [µM]	IC50 (NRAS) [µM]	IC50 (KRAS WT) [µM]	IC50 (HRAS) [µM]	IC50 (KRAS G13D) [µM]	IC50 (KRAS G12V) [µM]	IC50 (AsPC-1 cells) [µM]	SMILES
4.99	> 11.1	> 10	> 11.1	> 11.1	> 11.1	> 11.1	> 11.1		Nc1nc2c(-c3nccc4c3sc3nc(OC[C@@]56CCCN5C[C@H](F)C6)nc(N5C[C@H]6CC[C@@H](C5)N6)c34)c(F)cc(F)c2o1 [Ex-15, 4-(4-((1R,5S)-3,8-diazabicyclo[3.2.1]octan-3-yl)-2-(((2R,7aS)-2-fluorotetrahydro-1H-pyrrolizin-7a(5H)-yl)methoxy)pyrido[4′,3′:4,5]thieno [2,3-d]pyrimidin-8-yl)-5,7-difluorobenzo[d]oxazol-2-amine]
0.645	8.49	> 10	> 11.1	> 11.1	> 11.1	1.54	> 11.1		Cn1c2nc(OC[C@]3(CO)CC3(F)F)nc(N3C[C@H]4CC[C@@H](C3)N4)c2c2ccnc(-c3ccc(F)c4sc(N)c(C#N)c34)c21 [Ex-62, 4-(4-((1R,5S)-3,8-diazabicyclo[3.2.1]octan-3-yl)-2-(((R)-2,2-difluoro-1-(hydroxymethyl)cyclopro-pyl)methoxy)-9-methyl-9H-pyrido[4′,3′:4,5]pyrrolo[2,3-d]pyrimidin-8-yl)-2-amino-7-fluorobenzo[b]thiophene-3-carbonitrile]
1.02	> 11.1	2.87	> 11.1	> 11.1	> 11.1	> 11.1	> 11.1		Cc1cc2[nH]ncc2c(-c2nccc3c2sc2nc(OC[C@]4(CO)CC4(F)F)nc(N4C[C@H]5CC[C@@H](C4)N5)c23)c1C(F)(F)F [Ex-25, ((1R)-1-(((4-((1R,5S)-3,8-diazabicyclo[3.2.1]octan-3-yl)-8-(6-methyl-5-(trifluoromethyl)-1H-indazol-4-yl)pyrido[4′,3′:4,5]thieno[2,3-d]pyrimidin-2-yl)oxy)methyl)-2,2-difluorocyclopropyl)methanol]
0.0407	1.55	0.315	> 11.1		> 11.1	0.451		0.49	C#Cc1cccc2cccc(-c3nccc4c5c(N6C[C@H]7CC[C@@H](C6)N7)nc(OC[C@@]67CCCN6C[C@H](F)C7)nc5n(C)c34)c12 [Ex-9, 4-((1R,5S)-3,8-diazabicyclo[3.2.1]octan-3-yl)-8-(8-ethynylnaphthalen-1-yl)-2-(((2R,7aS)-2-fluoro-tetrahydro-1H-pyrrolizin-7a(5H)-yl)methoxy)-9-methyl-9H-py-rido[4′,3′:4,5]pyrro-lo[2,3-d]pyrimidine]
0.202	1.69	1.26	> 11.1	6.33	> 11.1	1.5	> 11.1		Cc1cc2[nH]ncc2c(-c2nccc3c4c(N5CC[C@H]6NCC[C@H]65)nc(OC[C@@]56CCCN5C[C@H](F)C6)nc4n(C)c23)c1C(F)(F)F [Ex-66, 2-(((2R,7aS)-2-fluorotetrahydro-1H-pyrrolizin-7a(5H)-yl)methoxy)-4-((3aR,6aR)-hexahydropyrrolo[3,2-b]pyrrol-1(2H)-yl)-9-methyl-8-(6-methyl-5-(trifluoromethyl)-1H-indazol-4-yl)-9H-pyrido[4′,3′:4,5]pyrrolo[2,3-d]pyrimidine]
0.583	> 11.1	3.97	> 11.1	> 11.1	> 11.1	4.88	> 11.1		Cc1cc2[nH]ncc2c(-c2nccc3c4c(N5C[C@H]6CC[C@@H](C5)N6)nc(OC[C@]5(CO)CC5(F)F)nc4n(C)c23)c1C(F)(F)F [Ex-53, ((1R)-1-(((4-((1R,5S)-3,8-diazabicyclo[3.2.1]octan-3-yl)-9-methyl-8-(6-methyl-5-(trifluoromethyl)-1H-indazol-4-yl)-9H-pyrido[4′,3′:4,5]pyrrolo[2,3-d]pyrimidin-2-yl)oxy)methyl)-2,2-difluorocyclopro-pyl)methanol]
0.728	> 11.1	2.65	> 11.1	> 11.1	> 11.1	> 11.1	> 11.1		Cc1cc2[nH]ncc2c(-c2nccc3c2oc2nc(OC[C@@]45CCCN4C[C@H](F)C5)nc(N4C[C@H]5CC[C@@H](C4)N5)c23)c1C(F)(F)F [Ex-78, 4-((1R,5S)-3,8-diazabicyclo[3.2.1]octan-3-yl)-2-(((2R,7aS)-2-fluorotetrahydro-1H-pyrrolizin-7a(5H)-yl)methoxy)-8-(6-methyl-5-(trifluoromethyl)-1H-indazol-4-yl)pyrido[4′,3′:4,5]furo[2,3-d]pyrimidine]
0.051	> 11.1	0.572	> 11.1	> 11.1	> 11.1	1.45	> 11.1		C#Cc1c(F)ccc2cc(N)nc(-c3nccc4c5c(N6C[C@H]7CC[C@@H](C6)N7)nc(OC[C@@]67CCCN6C[C@H](F)C7)nc5n(C)c34)c12 [Ex-7, 1-(4-((1R,5S)-3,8-diazabicyclo[3.2.1]octan-3-yl)-2-(((2R,7aS)-2-fluorotetrahydro-1H-pyrrolizin-7a(5H)-yl)methoxy)-9-methyl-9H-pyrido[4′,3′:4,5]pyrrolo[2,3-d]pyrimidin-8-yl)-8-ethynyl-7-fluoroisoquinolin-3-amine]
0.906	> 11.1	9.85	> 11.1	> 11.1	> 11.1	> 11.1	> 11.1		Cc1cc(N)nc(-c2nccc3c4c(N5C[C@H]6CC[C@@H](C5)N6)nc(OC[C@@]56CCCN5C[C@H](F)C6)nc4n(C)c23)c1C(F)(F)F [Ex-6, 6-(4-((1R,5S)-3,8-diazabicyclo[3.2.1]octan-3-yl)-2-(((2R,7aS)-2-fluorotetrahydro-1H-pyrrolizin-7a(5H)-yl)methoxy)-9-methyl-9H-pyrido[4′,3′:4,5]pyrrolo[2,3-d]pyrimidin-8-yl)-4-methyl-5-(trifluoromethyl)pyridin-2-amine]
